In publication PMC8851282, “Senolysis induced by 25-hydroxycholesterol targets CRYAB in multiple cell types” (iScience, 2022):

Columns and labels:
[1] = tested on: mouse dermal fibroblasts (mDFs); assay: Cell viability assay of NS and SEN mouse dermal fibroblasts treated with CRYAB and HMOX1 inhibitors; assay type: cell-based; conditions: 250 nM Doxo-induced senescence; after 72 h of treatment; 25HC at five or 10 μM
Method: The average value of DMSO was set at 1. (B and D) Effects of CRYAB and HMOX1 inhibitors on DMSO-treated NS or Doxo-treated SEN cells; (B) mDFs, (D) IMR-90s. Cells were treated with the inhibitors at the indicated concentrations. Cell viability was measured after 72 h. (C) IMR-90 qRT-PCR. For qPCR: mean +/- SE, n =4, ∗p< 0.05, ∗∗p< 0.01, ∗∗∗p<0.001, ∗∗∗∗p<0.0001 by Dunnett’s multiple comparisons test vs DMSO. For cell viability assays: mean +/- SE, n =3, ∗∗p< 0.01, ∗∗∗p<0.001, ∗∗∗∗p<0.0001 vs 0 mM by student’s t test.
For skin sample collection, mice were euthanized, hair removed from dorsal skin and the area cleaned with alcohol. A small 1 cm x 1 cm region of skin was removed, and subcutaneous fat removed by scalpel. Skin was digested in 2–3 ml of 0.25% trypsin at 37 °C for 1 h. Hair and epidermis were further removed, and the dermis was minced into 2–3 mm pieces. Digestion of the sample in 5 ml of 1 mg/ml collagenase (Sigma, Cat#C5138) in HBSS (with Ca^++ and Mg^++) (Gibco, cat#24020117) was carried out at 37 °C on a shaker for 1 h. Collagenase digestion was stopped by addition of 10 ml 10% FBS DMEM. Filtration of the homogenate through a 70-micron mesh was performed to remove undigested tissue. Differential centrifugation and washing were performed at 1200 rpm for 5 min, and the pellet was resuspended in 10% FBS DMEM then seeded in a six-well plate. Media were changed at 5 days after seeding and then every 3 days.
All experiments were performed in incubators at 37 °C, 3% O2 and 5% CO2. Senescence was induced by treatment with either Doxo (250 nM for 24 h) ([Demaria et al., 2017]) or X-irradiation (10 Gy) ([Limbad et al., 2020]). For cell culture studies using 25HC, it was used at the indicated concentrations in the media.
Cell viability was assessed using a cell counting kit-8 from Dojindo Molecular Technologies, Inc (Cat CK04-20). Cells were incubated with culture media + 10% kit cell viability reagent, 150 μL/well in 96-well plates for 2 h. The supernatant was transferred to a new 96-well plate and absorbance read at 450 nm as recommended in the product datasheet.

[2] = tested on: Cdkn1a and Cryab mRNA in gastrocnemius and soleus muscles; assay: qRT-PCR of senescence markers and Cryab in muscles of Doxo-treated mice given 25HC; assay type: in vivo, mouse; conditions: Doxo-treated male mice, 25HC 50 mg/kg i.p. for 7 consecutive days
Method: Figure 8 25HC induces senolysis in vivo in Doxo-treated mice (A) Timeline of 25HC treatment in Doxo-treated mice. Mice were given 4 mg/kg Doxo or PBS for 5 daily injections[A1], then injected with 25HC or vehicle for 7 consecutive days. (B) Mass of gastrocnemius muscles. Muscle weight was normalized to body weight. (C) Cdkn2a and Cryab mRNA levels in gastrocnemius (Gastroc) and soleus (Sol) muscles. RNA was collected 28–30 d after the first treatment with Doxo. mRNA levels were quantified by qRT-PCR, and normalized to actin mRNA levels. The average value of PBS-vehicle was set at 1. (D) 15-d-PGJ2 analysis in urine. Urine was collected at 24 h after the first treatment with 25HC or HbCD. p values versus PBS-Veh or Doxo-Veh are obtained using Tukey's multiple comparisons test. ∗p < 0.05, ∗∗p < 0.01, p < 0.001, and ∗∗∗∗p < 0.0001.
Male C57BL/6J mice (3–4 months old) were purchased from the Jackson Laboratory. We performed five i.p. injections with 4 mg/kg of Doxo (Tocris Bioscience, Product# 2252) for each injection over 10 days (Figure 6A). Therefore, we injected a total of 20 mg/kg of Doxo/mouse over 10 days. We used EFT-PBS (EMD Millipore, Product# TMS-012-A) as a control. To test effects of 25HC (Tocris Bioscience, Product# 5741) on Doxo-treated mice, we prepared three experimental groups (n=15 for each group): 1) PBS+HβCD vehicle (22.5%), 2) Doxo (20 mg/kg)+vehicle (22.5%), 3) Doxo (20 mg/kg)+25HC (50 mg/kg) (Figure 6A); 25HC was dissolved in 22.5% 2-hydroxypropyl-beta-cyclodextrin (HβCD) (Tocris Bioscience, Product 0708). On the Day 5 after the last Doxo/PBS injections, the mice were treated with either 25HC (50 mg/kg) or vehicle by i.p. injections for 7 consecutive days (Figure 6A). 12 hr after the first 25HC or vehicle treatments, urine was collected (Figure 6A) from each group to test for the senolysis marker 15-d-PGJ2. […] Senescence markers p16^INK4a, p21^Cip1 and CRYAB expression was analyzed on gastrocnemius (Gastroc), soleus (So), tibialis anterior (TA), visceral fat (VF), kidney (Ki), liver (Li), lung (Lu), heart (He), and skin (Sk) samples by qRT-PCR. […]

C[C@H](CCCC(C)(C)O)[C@H]1CC[C@H]2[C@@H]3CC=C4C[C@@H](O)CC[C@]4(C)[C@H]3CC[C@]12C [25HC, 25-hydroxycholesterol]
senolysis in mDF cells [1]: induced significant senolysis | Cryab mRNA levels in muscle [2]: reduced | Cdkn1a mRNA in gastrocnemius and soleus ([2]; versus Doxo + vehicle): significantly decreased
